According to PMC6568020, “Elucidating the Hot Spot Residues of Quorum Sensing Peptidic Autoinducer PapR by Multiple Amino Acid Replacements” (Frontiers in Microbiology, 2019):
“Also recorded” adds a separate entry of the source. Where a SMILES comes first, the peptide text is derived from it. [ ]: non-standard residue; d: D form.

What was measured:
B. cereus ATCC 14579 = assay type: cell-based, Bacillus cereus; settings: n = 9; for IC50: supernatant of B. cereus ATCC 14579 cultures treated at OD600 0.1 ± 0.03 for 2.5 h, 1% human red blood cells, 30 min, 37°C, absorbance at 420 nm, mean ± SEM, SEM, read-out: IC50, hemolytic assay; for reduction of hemolytic activity: 10 μM peptide, B. cereus ATCC 14579 treated at OD600 0.1 ± 0.03, human red blood cells, normalized to untreated
Description: Bt A’Z or B. cereus ATCC 14579 cells were grown overnight in LB medium. The cells were diluted 10^–3 in modified LB to a final volume of 1 liter and incubated at 37°C with shaking (200 rpm) until the end of the lag phase of bacterial growth (OD600 0.1 ± 0.03). Different concentrations of synthetic peptides were added to 2 ml aliquots of culture and incubated for 2.5 h before centrifugation (Eppendorf centrifuge R5810, 4000 rpm for 5 min), separation and filtration (0.2 μm filter) of the supernatants of the treated cultures. Analyses of hemolytic activity were conducted as previously described using human red blood cells ([Tal-Gan et al., 2013b]; [Lobel et al., 2015]). Bacterial supernatants were serially diluted in Tris-buffered saline (pH 7.2, 10 mM Tris–HCl, 155 mM NaCl) with 1% human red blood cells (hRBC) suspension and were incubated for 30 min at 37°C. Hemolytic activities were measured by monitoring the absorbance at 420 nm.

[1] = tested on: PlcR regulon (plcA promoter-lacZ fusion); assay: Competition studies of PapR7-derived peptides with endogenous PapR, β-galactosidase (lacZ reporter) assay; assay type: cell-based, B. thuringiensis 407 Cry- plcA'Z (Bt A'Z); settings: Bt A'Z; for reduction of plcA'Z activity: 2.5 μM peptide, added at late-exponential phase (OD600 1.8 ± 0.1), normalized to untreated cells, mean; for reduction of plcA'Z activity / effect on plcA'Z activation / PlcR regulon activity after 24 h (in words) / effect on plcA'Z activation at low cell density (in words): n = 9; for IC50: late-exponential phase (OD600 1.8 ± 0.1), competition with endogenous PapR, mean ± SEM, SEM, read-out: IC50, lacZ-based reporter assay; for effect on plcA'Z activation / PlcR regulon activity after 24 h (in words) / effect on plcA'Z activation at low cell density (in words): 10 μM peptide; for effect on plcA'Z activation / PlcR regulon activity after 24 h (in words): added at OD600 0.1 ± 0.03, harvested after 24 h; for effect on plcA'Z activation at low cell density (in words): added at OD600 0.1 ± 0.03, quantified after 2.5 h; for class of inhibitory activity throughout the competition studies: plcA'lacZ, summary of the competition studies
Description: Bacterial strains used in this study: B. thuringiensis 407 Cry ^- plcA′Z (Bt A’Z) and the PapR null-mutant 407 Cry ^- ΔpapR plcA’Z (Bt ΔpapR A’Z) strains, containing a transcriptional fusion between the promoter of plcA and the lacZ reporter gene (as described previously; [Gominet et al., 2001]; [Slamti and Lereclus, 2002]); B. cereus strain ATCC 14579 ([Ivanova et al., 2003]). Unless otherwise noted, cells were grown in modified LB medium (16 g/L tryptone, 8 g/L yeast extract, 5 g/L NaCl) at 37°C and stored at −80°C in LB containing 25% glycerol. Kanamycin (200 μg/mL) was used for the selection of B. thuringiensis.
Bt A’Z cells were grown overnight in LB medium. The cells were diluted 10^–3 in modified LB to a final volume of 1 L and incubated at 37°C with shaking (200 rpm) until the end of the lag or late-exponential of bacterial growth (OD600 0.1 ± 0.03; 1.8 ± 0.1, respectively). Different concentrations of synthetic peptides were added to 2 ml aliquots of culture and incubated for various times (1–24 h) before centrifugation (Eppendorf centrifuge R5810, 4000 rpm for 5 min) and quantification of β-galactosidase activity.
β-galactosidase activity was measured as described previously ([Yang et al., 2017]), with minor modifications. Briefly, 200 μL aliquots from 2 ml treated cultures were added in triplicate to a clear 96-well microtiter plate, and then OD600 was measured and β-galactosidase activity was assayed. The final results were reported as percentage of activation, which is the ratio between the Miller units obtained after addition of the PapR7 analogs. In Bt ΔpapR A’Z strain, the plcA promoter activity was very low and considered as a baseline. In Bt A’Z strain, the untreated bacteria were considered as 100% of activation and the results were normalized accordingly. Each assay was repeated at least three times.

[2] = target: PlcR of B. cereus ATCC 14579 (B. cereus (endogenous in strain ATCC 14579))
[3] = target: PlcR of B. thuringiensis 407 Cry- (B. thuringiensis (endogenous in strain 407 Cry- plcA'Z))
[4] = target: PlcR of B. cereus ATCC 14579 (B. cereus (endogenous in strain ATCC 14579)); remark: listed apart in the source
[5] = target: PlcR of B. cereus ATCC 14579 (B. cereus (endogenous in strain ATCC 14579)); remark: listed apart in the source
[6] = target: PlcR of B. thuringiensis 407 Cry- (B. thuringiensis (endogenous in strain 407 Cry- plcA'Z)); remark: listed apart in the source

**Q.** What does the source list for CC(C)C[C@H](NC(=O)[C@H](CC(=O)O)NC(=O)[C@H](C)N)C(=O)N1CCC[C@H]1C(=O)N[C@@H](Cc1ccccc1)C(=O)N[C@H](CCC(=O)O)C(=O)N[C@@H](Cc1ccccc1)C(N)=O [PapR7-dE6, reference compound] (H-ADLPF[dE]F-NH2; N-terminus assumed)?
**A.** IC50 (B. cereus ATCC 14579): 1050 ± 89 nM; reduction of plcA'Z activity [1]: 65%; IC50 [1]: 977 ± 42 nM

**Q.** CC(C)C[C@H](NC(=O)[C@H](CC(=O)O)NC(=O)[C@H](C)N)C(=O)N1CCC[C@H]1C(=O)N[C@@H](Cc1ccccc1)C(=O)N[C@H](CCC(=O)O)C(=O)N[C@@H](C)C(N)=O [PapR7-dE6:F7A] (H-ADLPF[dE]A-NH2; N-terminus assumed) was tested. Which IC50 (B. cereus ATCC 14579) did it give?
**A.** The IC50 was 2500 ± 212 nM.

**Q.** And the “reduction of plcA'Z activity” value [1]?
**A.** The value was 65%.

**Q.** What about the “effect on plcA'Z activation / PlcR regulon activity after 24 h (in words)” value [1] of the same compound?
**A.** The value was “blocked plcA’Z activation; also recorded: blocked the PlcR regulon activity”.

**Q.** And the “effect on plcA'Z activation at low cell density (in words)” value (from here on “effect … at low cell density (in words)”) [1]?
**A.** The value was “blocked plcA’Z activation”.

**Q.** And the IC50 [1]?
**A.** Its IC50 is 2570 ± 203 nM.

**Q.** And the “class of inhibitory activity throughout the competition studies” value [1]?
**A.** Its value is “very potent inhibitors”.

**Q.** How did the IC50 (B. cereus ATCC 14579) turn out when CC(C)C[C@H](NC(=O)[C@H](CC(=O)O)NC(=O)[C@H](C)N)C(=O)N1CCC[C@H]1C(=O)N[C@@H](Cc1ccccc1)C(=O)N[C@H](CCC(=O)O)C(=O)N[C@H](Cc1ccccc1)C(N)=O [PapR7-dE6:dF7] (H-ADLPF[dE][dF]-NH2; N-terminus assumed) was run?
**A.** Its IC50 is 1380 ± 117 nM.

**Q.** And the “reduction of plcA'Z activity” value [1]?
**A.** The value was 71%.

**Q.** What about the “effect on plcA'Z activation / PlcR regulon activity after 24 h (in words)” value [1] of the same compound?
**A.** Its value is “blocked plcA’Z activation; also recorded: blocked the PlcR regulon activity”.

**Q.** And the “effect … at low cell density (in words)” value [1]?
**A.** The value was “blocked plcA’Z activation”.

**Q.** What about the IC50 [1] of the same compound?
**A.** The IC50 was 1680 ± 170 nM.

**Q.** And the “class of inhibitory activity throughout the competition studies” value [1]?
**A.** Its value is “very potent inhibitors”.

**Q.** What does the source list for CC(C)C[C@H](NC(=O)[C@H](CC(=O)O)NC(=O)[C@H](C)N)C(=O)N1CCC[C@H]1C(=O)N[C@@H](Cc1ccccc1)C(=O)N[C@@H](CCC(=O)O)C(=O)N[C@H](Cc1ccccc1)C(N)=O [PapR7-dF7, reference compound] (H-ADLPFE[dF]-NH2; N-terminus assumed)?
**A.** IC50 (B. cereus ATCC 14579): 3040 ± 206 nM; reduction of plcA'Z activity [1]: 63%; IC50 [1]: 1220 ± 72 nM

**Q.** What does the source list for “ADLAFEA [PapR7-P4A:F7A, second-generation PapR7-derived peptide ADLAFEA]”?
**A.** reduction of hemolytic activity (B. cereus ATCC 14579): ~60%; reduction of plcA'Z activity [1]: approximately 40%; effect on plcA'Z activation at low cell density (in words) [1]: drastic reduction in plcA’Z activity; class of inhibitory activity throughout the competition studies [1]: median to high inhibitory activities

**Q.** With “ADLAFEdF [PapR7-P4A:dF7, second-generation PapR7-derived peptide ADLAFEdF]” as the compound, how does the “reduction of hemolytic activity” value (B. cereus ATCC 14579) read?
**A.** Its value is “approximately 83%”.

**Q.** And the “reduction of plcA'Z activity” value [1]?
**A.** The value was “approximately 40%”.

**Q.** What about the “effect … at low cell density (in words)” value [1] of the same compound?
**A.** The value was “drastic reduction in plcA’Z activity”.

**Q.** What about the “class of inhibitory activity throughout the competition studies” value [1] of the same compound?
**A.** Its value is “median to high inhibitory activities”.

**Q.** PapR7-E6A:F7A (peptide) was tested. Which reduction of the hemolytic activity (human red blood cells) of supernatants of B. cereus ATCC 14579 cultures treated with 10 μM peptide; the pair that is blocked: native PapR with PlcR [2] did it give?
**A.** The reduction of the hemolytic activity (human red blood cells) of supernatants of B. cereus ATCC 14579 cultures treated with 10 μM peptide; the pair that is blocked: native PapR with PlcR was 60%.

**Q.** What about the reduction of plcA'Z (β-galactosidase) activity in Bt A'Z cells, 2.5 μM peptide added at late-exponential phase; the pair that is blocked: endogenous PapR with PlcR [3] of the same compound?
**A.** The reduction of plcA'Z (β-galactosidase) activity in Bt A'Z cells, 2.5 μM peptide added at late-exponential phase; the pair that is blocked: endogenous PapR with PlcR was 40%.

**Q.** What does the source list for PapR7-E6A:dF7 (peptide)?
**A.** inhibition of the hemolytic activity (human red blood cells) of supernatants of B. cereus ATCC 14579 cultures treated with 10 μM peptide; the pair that is blocked: native PapR with PlcR [4]: 83%; reduction of plcA'Z (β-galactosidase) activity in Bt A'Z cells, 2.5 μM peptide added at late-exponential phase; the pair that is blocked: endogenous PapR with PlcR [3]: 40%

**Q.** What does the source list for PapR7-F7A (peptide)?
**A.** IC50 of inhibition of the hemolytic activity (human red blood cells) of supernatants of treated B. cereus ATCC 14579 cultures; the pair that is blocked: native PapR with PlcR [5]: 2720 nM; IC50 of inhibition of plcA'Z (β-galactosidase) activity in Bt A'Z cells, lacZ-based reporter assay; the pair that is blocked: endogenous PapR with PlcR [6]: 1680 nM; reduction of plcA'Z (β-galactosidase) activity in Bt A'Z cells, 2.5 μM peptide added at late-exponential phase; the pair that is blocked: endogenous PapR with PlcR [3]: 70%
